From US5726195A, “Aminoacyl adenylate mimics as novel antimicrobial and antiparasitic agents” (Cubist Pharmaceuticals, Inc., priority 1996, dated 1998)
≈ marks a conversion by molar mass, not a printed value.

Assays:
[1] = test system: isoleucyl-tRNA synthetase; details: Gram positive bacterial pathogens such as Staphylococcus aureus; cited from earlier work
[2] = biological target: E. Coli. IleRS (isoleucyl-tRNA synthetase) (Escherichia coli, UniProt P00956); test: Inhibition of isoleucyl-tRNA synthetase (aminoacylation of tRNA with [3H]isoleucine); assay type: biochemical; details: E. coli enzyme; irreversible inhibitors: values are 50% of the active enzyme concentration; read-out: IC50 E.Coli. IleRS
Protocol: The extent of aminoacylation of tRNA with isoleucine catalyzed by isoleucyl-tRNA synthetase enzyme was measured by monitoring the incorporation of [3H] isoleucine into trichloroacetic acid-precipitable tRNA in the presence of a compound of Formula I, as compared with activity in the absence of inhibitor. The isoleucyl-tRNA synthetase enzymes are well known in the prior art and can be obtained and purified by known methods (for example see: D. Kern et at., Biochimie, 61, 1257-1272 (1979) and J. Gilbart et al., Antimicrobial Agents and Chemotherapy, 37 (1), 32-38 (1993)).
Isoleucyl-tRNA synthetase enzyme (0.08-2.0 nM, preferably, 0.4 nM) was first pre-incubated at 25° C. with 0.05 mg/ml bovine serum albumin, 10 mM DTT, 2.5% dimethyl sulfoxide, with or without a compound of Formula I, for 20 minutes. At this point a substrate solution (a solution containing the following: ATP, [^3 H]isoleucine, tRNA, HEPES, magnesium chloride, and potassium chloride) was added to give a final concentration of 0.0286 mg/ml bovine serum albumin, 5.7 mM DTT, 4 mM ATP, 5-20 μM [^3 H] isoleucine (1-15 Ci/mmol), 90 μM crude tRNA or 2 μM isoleucine specific tRNA, 1.4% dimethyl sulfoxide, 30 mM HEPES (pH 7.5), 10 mM magnesium chloride, and 50 mM potassium chloride and incubated at 25° C. Aliquots were removed at selected times (e.g. 5, 10, 20 minutes) and applied to 3MM filter paper discs (Whatman) and then dropped into 5% (wt/vol) trichloroacetic acid for >5 minutes. Filters were washed for three 10-minute periods in 5% trichloroacetic acid, rinsed in 95% ethanol and diethyl ether, and radioactivity was measured with Betafluor™ (National Diagnostics) by liquid scintillation counting.
Inhibitor activity is reported in Table II as an IC50 value (inhibitor concentration causing 50% inhibition of enzyme activity) per a known amount of active enzyme. In the case of irreversible inhibitors (1:1 stoichiometry) these values are 50% of the active enzyme concentration. The IC50 (in nM, E. coli) values of representative compounds of the present invention are listed in the second column of Table II.

E. faecium ATCC 6569 = test: Whole cell antimicrobial screen, MIC; assay type: cell-based; details: Enterococcus faecium, ATCC6569
Protocol: (§1) Compounds were tested for antimicrobial activity against a panel of organisms according to standard procedures described by the National Committee for Clinical Laboratory Standards (NCCLS document M7-A3, Vol. 13, No. 25, 1993/NCCLS document M27-P, Vol. 12, No. 25, 1992). Compounds were dissolved in 100% dimethyl sulfoxide and were diluted to the final reaction concentration (0.1 μg/mL-500 μg/mL) in microbial growth media. In al cases the final concentration of dimethyl sulfoxide incubated with cells is less than or equal to 1%. For minimum inhibitory concentration (MIC) calculations, 2-fold dilutions of compounds were added to wells of a microtiter plate containing 5×10^4 bacteria or fungal cells in a final volume of 100 lambda of an appropriate media (Mueller-Hinton Broth; Haemophilus Test Media; Mueller-Hinton Broth+5% Sheep Blood; or […]). Plates were incubated overnight at an appropriate temperature (30° C.-37° C.) and optical densities (measure of cell growth) were measured using a commercial plate reader. The MIC value is defined as the lowest compound concentration inhibiting growth of the test organism.

S. pyogenes ATCC 8668 = test: Whole cell antimicrobial screen, MIC; assay type: cell-based; details: Streptococcus pyogenes, ATCC8668
Protocol: as §1

[3] = test system: S. epidermidis ATCC 33501; test: Whole cell antimicrobial screen, MIC; assay type: cell-based; details: Staphylococcus epidermidis, ATCC33501
Protocol: as §1

S. aureus ATCC 6538P = test: Whole cell antimicrobial screen, MIC; assay type: cell-based; details: Staphylococcus aureus, ATCC6538P
Protocol: as §1

C. albicans ATCC 10231 = test: Whole cell antimicrobial screen, MIC; assay type: cell-based; details: Candida albicans, ATCC10231
Protocol: as §1

S. aureus ATCC 14154 = test: Whole cell antimicrobial screen, MIC; assay type: cell-based; details: Staphylococcus aureus, ATCC14154
Protocol: as §1

[4] = test system: S. saprophyticus ATCC 35552; test: Whole cell antimicrobial screen, MIC; assay type: cell-based; details: Staphylococcus saprophyticus, ATCC35552
Protocol: as §1

E. faecalis ATCC 33011 = test: Whole cell antimicrobial screen, MIC; assay type: cell-based; details: Enterococcus faecalis, ATCC33011
Protocol: as §1

[5] = test system: M. catarrhalis ATCC 25240; test: Whole cell antimicrobial screen, MIC; assay type: cell-based; details: Moraxella catarrhalis, ATCC25240
Protocol: as §1

K. pneumonia ATCC 4352 = test: Whole cell antimicrobial screen, MIC; assay type: cell-based; details: Klebsiella pneumoniae, ATCC4352
Protocol: as §1

S. pneumonia ATCC 49619 = test: Whole cell antimicrobial screen, MIC; assay type: cell-based
Protocol: as §1

B. subtilis ATCC 6633 = test: Whole cell antimicrobial screen, MIC; assay type: cell-based; details: Bacillus subtilis, ATCC6633
Protocol: as §1

H. influenza ATCC 49247 = test: Whole cell antimicrobial screen, MIC; assay type: cell-based
Protocol: as §1

E. Coli. IleRS (isoleucyl-tRNA synthetase), sequence (P00956 whole entry): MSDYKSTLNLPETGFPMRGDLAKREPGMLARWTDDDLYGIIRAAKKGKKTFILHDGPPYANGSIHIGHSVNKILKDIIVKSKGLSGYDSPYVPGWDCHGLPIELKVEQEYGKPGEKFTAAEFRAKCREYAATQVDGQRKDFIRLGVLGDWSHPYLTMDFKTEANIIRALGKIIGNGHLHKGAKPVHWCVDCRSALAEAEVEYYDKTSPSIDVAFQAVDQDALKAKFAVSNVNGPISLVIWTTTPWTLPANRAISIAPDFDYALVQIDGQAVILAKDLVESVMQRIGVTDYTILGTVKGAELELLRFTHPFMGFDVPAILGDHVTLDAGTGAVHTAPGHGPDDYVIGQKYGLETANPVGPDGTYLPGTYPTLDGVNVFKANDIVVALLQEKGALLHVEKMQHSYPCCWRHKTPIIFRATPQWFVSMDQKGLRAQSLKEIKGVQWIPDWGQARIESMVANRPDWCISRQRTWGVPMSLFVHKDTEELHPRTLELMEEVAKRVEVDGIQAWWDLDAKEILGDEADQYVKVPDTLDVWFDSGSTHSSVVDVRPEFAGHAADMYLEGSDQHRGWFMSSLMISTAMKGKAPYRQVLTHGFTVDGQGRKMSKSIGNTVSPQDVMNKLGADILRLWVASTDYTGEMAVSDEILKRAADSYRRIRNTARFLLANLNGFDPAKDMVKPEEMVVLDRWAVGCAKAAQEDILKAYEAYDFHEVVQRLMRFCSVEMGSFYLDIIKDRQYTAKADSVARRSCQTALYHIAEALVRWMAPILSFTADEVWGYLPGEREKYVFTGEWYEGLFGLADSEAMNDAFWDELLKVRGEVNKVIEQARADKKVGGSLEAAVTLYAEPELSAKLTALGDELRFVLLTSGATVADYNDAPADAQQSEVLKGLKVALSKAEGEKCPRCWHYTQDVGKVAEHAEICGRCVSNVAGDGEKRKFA

SMILES	inhibition of isoleucyl adenylate formation [1]	IC50 [2] [nM]	MIC (E. faecium ATCC 6569) [µg/mL]	MIC (S. pyogenes ATCC 8668) [µg/mL]	MIC [3] [µg/mL]	MIC (S. aureus ATCC 6538P) [µg/mL]	MIC (C. albicans ATCC 10231) [µg/mL]	MIC (S. aureus ATCC 14154) [µg/mL]	MIC [4] [µg/mL]	MIC (E. faecalis ATCC 33011) [µg/mL]	MIC [5] [µg/mL]	MIC (K. pneumonia ATCC 4352) [µg/mL]	MIC (S. pneumonia ATCC 49619) [µg/mL]	MIC (B. subtilis ATCC 6633) [µg/mL]	MIC (H. influenza ATCC 49247) [µg/mL]
CC(=CC(=O)OCCCCCCCCC(=O)O)CC1OCC(CC2OC2C(C)C(C)O)C(O)C1O (stereo not drawn) [Pseudomonic acid A]	inhibits isoleucyl adenylate formation	–	–	–	–	–	–	–	–	–	–	–	–	–	–
CC[C@H](C)[C@H](N)C(=O)NS(=O)(=O)OC[C@H]1O[C@@H](CCn2nnc(-c3ccc(-c4ccccc4C)c(C)c3)n2)[C@H](O)[C@@H]1O [XXII]	–	11	100 (≈ 166 µM)	10 (≈ 16.6 µM)	5 (≈ 8.3 µM)	25 (≈ 41.5 µM)	> 500	25 (≈ 41.5 µM)	10 (≈ 16.6 µM)	200 (≈ 332 µM)	50 (≈ 83 µM)	100 (≈ 166 µM)	25 (≈ 41.5 µM)	25 (≈ 41.5 µM)	–
CC[C@H](C)[C@H](N)C(=O)NS(=O)(=O)OC[C@H]1O[C@@H](CCn2nnc(-c3ccc(C#Cc4ccc([N+](=O)[O-])o4)cc3)n2)[C@H](O)[C@@H]1O [II, [S-(R*,R*)]-3,6-anhydro-1,2-dideoxy-1-[5-[4-[(5-nitro-2-furyl)ethynyl]phenyl]-2H-tetrazol-2-yl]-D-allo-heptitol 7-(2-amino-3-methyl-1-oxopentyl)sulfamate]	–	1	64 (≈ 101 µM)	16 (≈ 25.3 µM)	1 (≈ 1.58 µM)	4 (≈ 6.31 µM)	100 (≈ 158 µM)	8 (≈ 12.6 µM)	8 (≈ 12.6 µM)	256 (≈ 404 µM)	–	–	16 (≈ 25.3 µM)	–	–
CC[C@H](C)[C@H](N)C(=O)NS(=O)(=O)OC[C@H]1O[C@@H](CCn2nnc(-c3ccc(-c4ccccc4)c(C)c3)n2)[C@H](O)[C@@H]1O [XX]	–	0.6	100 (≈ 170 µM)	–	25 (≈ 42.5 µM)	50 (≈ 84.9 µM)	> 500	50 (≈ 84.9 µM)	25 (≈ 42.5 µM)	500 (≈ 849 µM)	25 (≈ 42.5 µM)	50 (≈ 84.9 µM)	–	50 (≈ 84.9 µM)	> 500
CC[C@H](C)[C@H](N)C(=O)NS(=O)(=O)OC[C@H]1O[C@@H](CCn2nnc(N3CCN(c4ccccc4)CC3)n2)[C@H](O)[C@@H]1O [XXIV]	–	1.3	400 (≈ 686 µM)	–	50 (≈ 85.8 µM)	400 (≈ 686 µM)	500 (≈ 858 µM)	> 400	400 (≈ 686 µM)	> 400	400 (≈ 686 µM)	400 (≈ 686 µM)	–	400 (≈ 686 µM)	–
CC[C@H](C)[C@H](N)C(=O)NS(=O)(=O)OC[C@H]1O[C@@H](CCn2nnc(-c3ccc(C#Cc4ccccc4)cc3)n2)[C@H](O)[C@@H]1O [IV]	–	4.5	> 500	–	2 (≈ 3.34 µM)	10 (≈ 16.7 µM)	> 200	100 (≈ 167 µM)	10 (≈ 16.7 µM)	> 500	5 (≈ 8.35 µM)	50 (≈ 83.5 µM)	–	25 (≈ 41.8 µM)	–
CC[C@H](C)[C@H](N)C(=O)NS(=O)(=O)OC[C@H]1O[C@@H](CCn2nnc(-c3ccc(Oc4ccc(C(=O)OCc5ccccc5)cc4)cc3)n2)[C@H](O)[C@@H]1O [XI]	–	109	25 (≈ 34.5 µM)	5 (≈ 6.9 µM)	5 (≈ 6.9 µM)	10 (≈ 13.8 µM)	> 500	25 (≈ 34.5 µM)	10 (≈ 13.8 µM)	> 500	–	–	50 (≈ 69 µM)	–	25 (≈ 34.5 µM)
